Values after ≈ are worked out from the molar mass of the structure shown.
Tests used:
[1] = system: Zika virus; assay: Antiviral activity against Zika virus infected in african green monkey Vero E6 cells assessed as inhibition of cytopathic effect by microscopy based analysis; assay type: functional, organism-based; conditions: Vero C1008
[2] = system: Enterococcus faecalis; assay: Bactericidal activity against Enterococcus faecalis; assay type: functional
[3] = system: Staphylococcus aureus; assay: Bactericidal activity against Staphylococcus aureus CIP 54127; assay type: functional
[4] = system: Escherichia coli; assay: Antibacterial activity against Escherichia coli CIP 53154 assessed as reduction in bacterial growth by micro-broth dilution method; assay type: functional
[5] = system: Enterococcus faecalis; assay: Ratio of MBC to MIC for Enterococcus faecalis; assay type: functional
[6] = system: Enterovirus A71; assay: Antiviral activity against human EV71 infected in human RD cells assessed as inhibition of cytopathic effect by microscopy based analysis; assay type: functional, organism-based; conditions: Enterovirus A
[7] = system: Pseudomonas aeruginosa; assay: Ratio of MBC to MIC for Pseudomonas aeruginosa CIP A22; assay type: functional
[8] = system: Yellow fever virus; assay: Antiviral activity against Yellow fever virus infected in human Huh-7 cells assessed as inhibition of cytopathic effect by microscopy based analysis; assay type: functional, organism-based
[9] = system: Staphylococcus aureus; assay: Antibacterial activity against Staphylococcus aureus CIP 54127 assessed as reduction in bacterial growth by micro-broth dilution method; assay type: functional
[10] = system: Human rhinovirus sp.; assay: Antiviral activity against Human rhinovirus B14 infected in human HeLa-RH cells assessed as inhibition of cytopathic effect by microscopy based analysis; assay type: functional, organism-based
[11] = Cytotoxicity against human HeLa-RH cells; assay type: toxicity, cell-based
[12] = system: Pseudomonas aeruginosa; assay: Bactericidal activity against Pseudomonas aeruginosa CIP A22; assay type: functional
[13] = system: Staphylococcus aureus; assay: Ratio of MBC to MIC for Staphylococcus aureus CIP 54127; assay type: functional
[14] = Cytotoxicity against African green monkey Vero E6 cells; assay type: toxicity, cell-based, Vero C1008; conditions: chlorocebus sabaeus
[15] = system: Escherichia coli; assay: Ratio of MBC to MIC for Escherichia coli CIP 53154; assay type: functional
[16] = system: Chikungunya virus; assay: Antiviral activity against CHIKV infected in African green monkey Vero A cells assessed as inhibition of cytopathic effect by microscopy based analysis; assay type: functional, organism-based
[17] = Cytotoxicity against African green monkey Vero A cells; assay type: toxicity, cell-based; conditions: chlorocebus sabaeus
[18] = system: Pseudomonas aeruginosa; assay: Antibacterial activity against Pseudomonas aeruginosa CIP A22 assessed as reduction in bacterial growth by micro-broth dilution method; assay type: functional
[19] = Cytotoxicity against human RD cells; assay type: toxicity, cell-based
[20] = Cytotoxicity against human Huh-7 cells; assay type: toxicity, cell-based
[21] = system: Human rhinovirus sp.; assay: Antiviral activity against Human rhinovirus A2 infected in human HeLa-RH cells assessed as inhibition of cytopathic effect by microscopy based analysis; assay type: functional, organism-based
[22] = system: Escherichia coli; assay: Bactericidal activity against Escherichia coli CIP 53154; assay type: functional
[23] = system: Enterococcus faecalis; assay: Antibacterial activity against Enterococcus faecalis assessed as reduction in bacterial growth by micro-broth dilution method; assay type: functional
[24] = Selectivity index, ratio of CC50 for African green monkey Vero A cells to IC50 for CHIKV infected in African green monkey Vero A cells; assay type: toxicity; conditions: read-out: Ratio CC50/IC50

Compound | IC50 [1] [µM] | MBC [2] [µM] | MBC [3] [µM] | MIC [4] [µM] | Ratio [5] | IC50 [6] [µM] | Ratio [7] | IC50 [8] [µM] | MIC [9] [µM] | IC50 [10] [µM] | CC50 [11] [µM] | MBC [12] [µM] | Ratio [13] | CC50 [14] [µM] | Ratio [15] | IC50 [16] [µM] | CC50 [17] [µM] | MIC [18] [µM] | CC50 [19] [µM] | CC50 [20] [µM] | other results
CCOP(=O)(OCC)C(Nc1ccccc1Cl)c1cc(Cn2cc(Cn3c(=O)cc(C)c4ccccc43)nn2)ccc1O (stereo not given) | > 100 | 60 (≈ 37.3 µg/mL) | 500 (≈ 311 µg/mL) | 260 (≈ 162 µg/mL) | 1 | > 100 | 1 | > 100 | 500 (≈ 311 µg/mL) | > 100 | 52.1 | 1010 (≈ 628 µg/mL) | 1 | > 33.3 | 1 | > 33.3 | 24.3 | 1010 (≈ 628 µg/mL) | > 100 | 30.5 | IC50 [21]: > 1.23 µM; MBC [22]: 260 µM (≈ 162 µg/mL); MIC [23]: 60 µM (≈ 37.3 µg/mL)
Cc1cc(=O)n(Cc2cn(Cc3ccc(O)c(C=O)c3)nn2)c2ccccc12 | > 100 | 110 (≈ 41.2 µg/mL) | 210 (≈ 78.6 µg/mL) | 430 (≈ 161 µg/mL) | 1 | > 33.3 | 2 | > 100 | 210 (≈ 78.6 µg/mL) | > 100 | 11.4 | 26700 (≈ 10000 µg/mL) | 1 | 57.5 | 1.93 | 95.7 | > 100 | 26700 (≈ 10000 µg/mL) | 27.1 | 37.5 | selectivity ratio [24]: > 1.05; IC50 [21]: > 1.23 µM; MBC [22]: 830 µM (≈ 311 µg/mL); MIC [23]: 110 µM (≈ 41.2 µg/mL)
CCOP(=O)(OCC)C(Nc1ccccc1)c1cc(Cn2cc(Cn3c(=O)cc(C)c4cc(F)ccc43)nn2)ccc1O (stereo not given) | > 100 | 2060 (≈ 1250 µg/mL) | 1040 (≈ 630 µg/mL) | 1040 (≈ 630 µg/mL) | 1 | > 100 | 2 | > 100 | 510 (≈ 309 µg/mL) | > 100 | > 100 | 8260 (≈ 5000 µg/mL) | 2.04 | > 33.3 | 1 | > 100 | > 100 | 8260 (≈ 5000 µg/mL) | > 100 | 46.2 | IC50 [21]: > 1.23 µM; MBC [22]: 1040 µM (≈ 630 µg/mL); MIC [23]: 2060 µM (≈ 1250 µg/mL)

Reference: ChEMBL document CHEMBL5505983, “Design, synthesis, and molecular modeling studies of novel 2-quinolone-1,2,3-triazole-α-aminophosphonates hybrids as dual antiviral and antibacterial agents” (Eur J Med Chem, 2024)
